Measurements reported in patent EP2924040A1, “2-Amino-1-(o-tolyl)pyrrolo[3,2-b]quinoxaline-3-carboxamide derivates” (Universität Zürich, priority 2014, dated 2015).

How the values were obtained:
[1] = target: T1, EphB4 (Homo sapiens, UniProt P54760); experiment: FRET based enzymatic assay (Z'-LYTE Kinase Assay Kit-Tyr 1 Peptide); format: biochemical; settings: EphB4 25 ng/µL, ATP 125 µM, room temperature, 2 h
T1 sequence (P54760 16-987): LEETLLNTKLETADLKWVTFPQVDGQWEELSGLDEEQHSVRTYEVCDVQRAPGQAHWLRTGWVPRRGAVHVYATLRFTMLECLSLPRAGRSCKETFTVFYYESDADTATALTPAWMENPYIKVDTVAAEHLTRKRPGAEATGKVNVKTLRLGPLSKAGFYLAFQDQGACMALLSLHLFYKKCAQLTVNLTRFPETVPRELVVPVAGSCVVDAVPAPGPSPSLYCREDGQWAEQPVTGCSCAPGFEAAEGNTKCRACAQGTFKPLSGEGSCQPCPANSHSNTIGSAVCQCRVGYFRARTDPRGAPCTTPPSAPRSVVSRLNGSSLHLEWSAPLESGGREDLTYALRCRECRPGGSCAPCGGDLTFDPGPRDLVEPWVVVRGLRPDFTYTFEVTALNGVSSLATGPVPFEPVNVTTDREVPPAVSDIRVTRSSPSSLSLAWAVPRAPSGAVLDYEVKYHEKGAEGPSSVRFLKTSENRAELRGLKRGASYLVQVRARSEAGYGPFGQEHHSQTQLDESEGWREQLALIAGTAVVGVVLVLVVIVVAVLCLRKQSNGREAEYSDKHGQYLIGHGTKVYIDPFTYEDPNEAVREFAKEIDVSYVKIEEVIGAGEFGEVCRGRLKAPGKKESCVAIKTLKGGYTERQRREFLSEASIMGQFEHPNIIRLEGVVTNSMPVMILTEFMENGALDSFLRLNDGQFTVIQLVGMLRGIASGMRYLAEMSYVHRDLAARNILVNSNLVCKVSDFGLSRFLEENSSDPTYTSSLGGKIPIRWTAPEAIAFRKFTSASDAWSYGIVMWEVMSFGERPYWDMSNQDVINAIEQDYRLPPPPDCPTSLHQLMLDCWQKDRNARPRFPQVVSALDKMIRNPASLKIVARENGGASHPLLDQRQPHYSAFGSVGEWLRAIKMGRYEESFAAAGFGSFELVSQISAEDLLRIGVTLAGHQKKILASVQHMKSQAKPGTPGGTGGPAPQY
Experimental: Selected compounds were tested in the Z'-LYTE™ Kinase Assay Kit-Tyr 1 Peptide (Invitrogen, USA) in a Corning 384 well microtiter plate. Fluorescence progress curves were measured upon excitation at 400 nm and emission at 445 and 520 nm.

[2] = system: HT-29; experiment: Cell culture and GI50 determination (resazurin); format: cell-based; settings: Homo sapiens; HT-29, resazurin
Experimental: MDA-MB-231, HT-29, KM12, HOP-92 and A498 cells were plated at 10,000 cells per well (100 µL per well) in 96-well culture dishes and allowed to incubate for 24 h. The old media was removed, the cells were washed with PBS (phosphate-buffered saline) and fresh media was added. A 5 mmol/L solution of inhibitor (in 100% DMSO) was serially diluted in the culture media (12 different concentrations were used) and allowed to incubate for 72 h (MDA-MB-231) or 48h (A498). Control cells were treated with the same DMSO concentrations. After the incubation period the media was once more removed and the cells were washed with PBS to then be incubated with fresh media containing 86 nmol/L resazurin. After 3 hours, the fluorescence was quantified using a fluorescence microplate reader (Biotek, FLx800™) at the respective excitation and emission wavelength of 560 and 590 nm. Resazurin becomes fluorescent under mitochondrial reduction and its emission directly correlates with the metabolic stability of the cells. The measured fluorescence values were corrected from the control samples containing DMSO and GI50 values were determined by plotting the fraction of metabolically active cells against the log of the drug concentration. All measurements were performed at least in triplicate.

[3] = In vivo pharmacokinetics in blood plasma; settings: male CD-1 mice
Experimental: Evaluation of the in vivo pharmacokinetics of a subset of compounds was performed through analysis of compound concentration in the blood plasma of male CD-1 (ICD) mice (each weighing 20-30 g) over a 24 hour period (at time points of 3, 10, 30, 60, 120, 240, 360 and 1440 minutes) following a single oral (PO) and intravenous (IV, in tail vein) administration of a compound dose corresponding to 5 mg of compound/kg of mouse body weight (PO) and 1 mg of compound/kg of mouse body weight (IV). For IV dosing, each compound was formulated as a clear solution in DMSO/Solutol® HS 15/phosphate-buffered saline, pH 7.4 (PBS) (5/5/90, v/v/v). For PO dosing, compounds were formulated as a homogeneous suspension in DMSO/1% methylcellulose (5/95, v/v).
At the relevant time point, blood samples (300-400 µL) were collected from the mice under general inhalant anaesthesia by cardiac puncture and stored on ice in 0.6 mL polypropylene heparin-lithium-coated tubes. Within 1 hour of collection, each tube was centrifuged at 2500 G for 15 minutes at 4°C and harvested plasma stored at -20°C.
Compound concentration in plasma at each time point was determined following acetonitrile precipitation of each sample followed by HPLC-MS analysis performed in triplicates, i.e., based on the mean of the compound concentration at that time point in blood samples of three mice.
Table 3: In vivo pharmacokinetics (min: minutes)

[4] = system: protein kinases; experiment: Selectivity profile with respect to protein kinases; format: binding; settings: kinase groups TK, TKL, STE, CK1, AGC, CAMK, CMGC, other (Fig. 1)
Source text: A selectivity profile of compound 2 with respect to protein kinases is depicted in Figure 1. The protein kinases are selected from tyrosine kinases (TK), tyrosine kinase-like kinases (TKL), STE-Group, Cell Kinases 1 (CK1), AGC-Group, Calmodulin/Calcium regulated kinases (CAMK), CMGC Group and other kinases. The larger the respective dot, the higher the binding affinity of the compound to the respective protein kinases. […] As per Kawasaki Y. and Freire E. in Drug Discovery Today, 2011 November; 16(21-22): 985-990, "[e]xtremely high affinity and selectivity are two of the most sought-after properties of drug molecules."

[5] = target: T1, EphB4; experiment: Cellular phosphorylation assay (EphB4 autophosphorylation, sandwich ELISA); format: cell-based; set-up: stably transfected to overexpress full-length human EphB4; host or cells: mouse embryonic fibroblast cells; settings: mouse embryonic fibroblast cells overexpressing full-length human EphB4; 90 min at 37 °C; stimulated with murine ephrinB2-Fc
Experimental: Mouse embryonic fibroblast cells, stably transfected to overexpress full-length human EphB4, were plated at 4×10^4 cells/well in DMEM supplemented with 10% FCS in 48-well culture dishes. Medium was replaced by DMEM without FCS before test compounds prediluted in 100% DMSO were added (final DMSO concentration of 1 %). […] Quantification of EphB4 phosphorylation was assessed in a 96-well plate via sandwich ELISA using a myc capture antibody and an antiphosphotyrosine detection antibody.

SMILES: Cc1ccc(O)cc1-n1c(N)c(C(N)=O)c2nc3ccccc3nc21 [Compound 2, 2-Amino-1-(5-hydroxy-2-methylphenyl)-1H-pyrrolo[2,3-b]quinoxaline-3-carboxamide]
- IC50 [1]: 11 nM
- GI50 [2]: 4590 nM
- T1/2 (min, IV) ([3]; IV 1 mg/kg, plasma): 1.68 h
- Bioavailibility (%) ([3]; [AUClast(PO)*Dose(IV)] / [AUClast(IV)*Dose(PO)]): 25%
- Cmax ([3]; mouse, PO 5 mg/kg, plasma): 240 ng/mL
- half-life ([3]; mouse, PO 5 mg/kg, plasma, read-out: T1/2 (min, PO)): 1.67 h
- Tmax ([3]; mouse, PO 5 mg/kg, plasma, read-out: Tmax (min, PO) (converted)): 0.5 h
- selectivity profile (binding affinity) with respect to protein kinases [4]: selectivity towards tyrosine kinases (TK)
- IC50 [5]: < 6 nM
